Laboratory results from US12673956B2, “Oxadiazolyl dihydropyrano[2,3-b]pyridine inhibitors of HIPK2 for treating kidney fibrosis” (ICAHN SCHOOL OF MEDICINE AT MOUNT SINAI, priority 2021, dated 2026).
Where two headings read alike, the source gives them in different places.

Assays:
[1] = test system: Col4a3-deficient mice; test: Col4a3-deficient mice, model of Alport syndrome (chronic kidney disease); assay type: in vivo; conditions: 60 mg/kg daily PO
Method: (§1) Activity of compounds of the invention was confirmed in vivo. Two chronic kidney disease models were employed: (1) Tg26 mice, a model of HIV-associated nephropathy, and (2) Col4a3-null mice, a model of Alport syndrome. Both CKD models are characterized by advanced glomerulosclerosis and tubulointerstitial fibrosis, leading to kidney failure and death approximately between 12 and 20 weeks of age.
Three-week old Col4a3-deficient mice were treated with Example 13 (60 mg/kg daily, PO) or vehicle for 6 weeks. The median survival in vehicle group was 56 days, which was increased to 68 days in the treated group (21% increase).

[2] = test system: TGF/SMAD Signaling Pathway SBE Reporter—HEK293 Cell Line; test: Luciferase screen, TGF/SMAD SBE reporter HEK293 cells stimulated with TGFβ; assay type: cell-based; conditions: Homo sapiens
Method: For the data in Table 1, the Bight-Glo™ Luciferase Assay System from Promega was used with TGF/SMAD Signaling Pathway SBE Reporter—HEK293 Cell Line from BPSbioscience. On day 1 SBE reporter-HEK293 cells were seeded at a density of 25,000 cells per well into a white clear-bottom 96-well microplate in 100 μl of growth medium without geneticin. The plate was incubated at 37° C. in a CO2 incubator for 24 hrs. The wells were renewed with 60 μL assay medium and treated with test compounds by adding 5 μL of compounds in medium. The concentration of test compound in medium is adjusted so that 5 μL will provide the desired molarity of the solution. For example, if the desired test concentration is 30 µM, then 5 μL of […] compound is added. After 4 hours, TGFβ was added to 10 ng/mL. The plate was incubated at 37° C. in a CO2 incubator overnight (18 hours). One hour prior to assay all medium was replaced. The luciferase assay was run using ONE-Step™ Luciferase Assay System by adding 100 al of ONE-Step™ Luciferase reagent per well, rocking at room temperature for ~15 to 30 minutes and measuring luminescence using a luminometer. The signals were normalized to percentage inhibition, with non-TGF treated cells as 100% inhibition, and the data were processed by Graphpad Prism.

[3] = test system: Tg26 mice; test: Tg26 mice, model of HIV-associated nephropathy (chronic kidney disease); assay type: in vivo
From the text: as §1
Tg26 mice of FVB/N genetic background bearing a defective HIV-1 provirus lacking gag-pol have been described by Feng et al. [J Am Soc Nephrol 2009; 20: 2138-2146]. Six-week old heterozygous Tg26 mice are used. Wildtype littermates are used as controls. Mice in the treatment group receive test compound dissolved in 20% NMP, 60% PEG400, and 20% H2O by oral gavage at a dose of 30, 60, or 90 mg/kg body weight per day. Mice in the control group receive the same volume of vehicle. The mice are treated for a total of 4 weeks and sacrificed at age of 10 weeks. […] In another trial, 5- to 6-week old Tg26 mice were treated with Example 13 (90 mg/kg daily, PO) or vehicle for 4 weeks: 38% (8/21 mice) died of kidney failure in the control group within the experimental duration; 0% died in the HIPK2i-174 group (0/18 mice). […] [Because of significant inter-variability of baseline UACR in Tg26 mice at 5-6 weeks of age, the therapeutic effect is calculated based on fold change to baseline for each mouse.]

[4] = SBE reporter-HEK293 cells, TGFβ 10 ng/mL, 18 hours, read-out: Luciferase IC50
[5] = another trial, 90 mg/kg daily PO, 4 weeks
[6] = first trial, four-week treatment, n=8
[7] = first trial, four-week treatment, vs. vehicle

With `CC1(C)Oc2ncc(-c3nc(-c4ccc(Cl)cc4)no3)cc2CC1O` (stereo in doubt) [Example 13, (S)-6-(3-(4-chlorophenyl)-1,2,4-oxadiazol-5-yl)-2,2-dimethyl-3,4-dihydro-2H-pyrano[2,3-b]pyridin-3-ol] the “increase of median survival vs. vehicle group” value ([1]; 6 weeks) was 21%, the “reduction in kidney fibrosis (picrosirius red staining) in comparison to vehicle group” value ([1]; 6 weeks) was ~ 51% and the “kidney fibrosis assessed by picrosirius red histological staining” value ([1]; 6 weeks, n=9) was 13.7±6.3%. For the same compound, the “reduction of urinary albumin-to-creatinine ratio vs. vehicle” value ([1]; after 6 weeks of treatment) was ~ 45%, the urinary albumin-to-creatinine ratio ([1]; after 6 weeks of treatment) was 41.4 ± 14.2 mg/mg and the median survival ([1]; three-week old mice, 6 weeks) was 68 days. For the same compound, the IC50 [2, 4] was 156 nM, the “reduction in kidney fibrosis (picrosirius red staining) in comparison to vehicle group” value [3, 5] was ~ 37% and the “reduction of urinary albumin-to-creatinine ratio from baseline values” [3, 5] was ~ 57%. For the same compound, the “urinary albumin-to-creatinine ratio, fold change to baseline” value ([3]; another trial, 90 mg/kg daily PO, 4 weeks, n=17) was 0.43±0.28, the “kidney fibrosis assessed by picrosirius red histological staining” value ([3]; another trial, 90 mg/kg daily PO, 4 weeks, n=18) was 2.8±1.2% and the “died of kidney failure within the experimental duration” value ([3]; another trial, 5- to 6-week old Tg26 mice, 90 mg/kg daily PO, 4 weeks, 0/18 mice) was 0%. The “Hazard ratio comparing vehicle vs. treatment” value ([3]; first trial, four-week treatment, Log-rank Mantel-Cox test) was 7.2, the “average fold change in urinary albumin-to-creatinine ratio from week 0 to week 4” value [3, 6] was 0.352 and the “renal fibrosis, average % area” value [3, 6] was 2.540%. The “reduction in average fold change in urinary albumin-to-creatinine ratio” value [3, 7] was ~ 65%, the “reduction in renal fibrosis area” value [3, 7] was ~ 43% and the survival ([3]; first trial, six-week old Tg26 mice, oral gavage 30, 60, or 90 mg/kg per day, four-week treatment, n=20) was 100%.
`Cc1cc(-c2noc(-c3cnc4c(c3)C[C@@H](O)C(C)(C)O4)n2)ccc1Cl` [Example 37, (3R)-6-[3-(4-chloro-3-methyl-phenyl)-1,2,4-oxadiazol-5-yl]-2,2-dimethyl-3,4-dihydropyrano[2,3-b]pyridin-3-ol] was tested, and the IC50 [2, 4] was 50 nM.
`CC1(C)Oc2ncc(-c3nc(-c4cccc(F)c4)no3)cc2C[C@H]1O` [Example 38, (R)-6-(3-(3-fluorophenyl)-1,2,4-oxadiazol-5-yl)-2,2-dimethyl-3,4-dihydro-2H-pyrano[2,3-b]pyridin-3-ol] gave an IC50 [2, 4] of 148 nM.
`CC1(C)Oc2ncc(-c3nc(-c4cc(Cl)cc(Cl)c4)no3)cc2C[C@@H]1O` [Example 39, (S)-6-(3-(3,5-dichlorophenyl)-1,2,4-oxadiazol-5-yl)-2,2-dimethyl-3,4-dihydro-2H-pyrano[2,3-b]pyridin-3-ol] gave an IC50 ([2]; HEK293, 18 h, read-out: Luciferase IC50 nM) of 1250 nM.
For `CC1(C)Oc2ncc(-c3nc(-c4cc(Cl)cc(Cl)c4)no3)cc2C[C@H]1O` [Example 40, (R)-6-(3-(3,5-dichlorophenyl)-1,2,4-oxadiazol-5-yl)-2,2-dimethyl-3,4-dihydro-2H-pyrano[2,3-b]pyridin-3-ol], the IC50 [2, 4] was 843 nM.
